According to patent US20260284208A1, “SYSTEM” (Oxford University Innovation Limited, priority 2023, published 2026):

Experiments:
[1] = test system: library of 8,380 IKZF3 degrons (ZF-eGFP/mCherry reporter) in Jurkat cells; assay: Pooled library screen (FACS, NGS, limma voom LogFC of positive vs negative read counts); format: cell-based, human; details: WT ZF sequence
Description: A library of 8,380 IKZF3 degrons was cloned into pLVX-Sprout to create the eGFP/mCherry protein degradation reporter plasmid pool. A lentivirus pool was then generated using the Lenti-X lentiviral vector production method.
Jurkat cells were transduced at a multiplicity of infection of <0.3 with the lentivirus vector library in order to maximise the number of cells with a single integration. Transductions were carried out in 6 well TC-treated cell culture dishes (Falcon) with 3×10^6 cells per well. Cells were incubated for 2 days at 37° C. and 5% CO2 before the supernatant was removed and replaced with fresh media. 6 days post-transduction, mCherry+ cells were isolated via FACS using the FACS Aria Fusion (BD) in a buffer containing PBS (Gibco), 2 mM EDTA (Gibco), 25 mM HEPES (Sigma) and 1% BSA (Sigma). 8 days later, cells were treated with DMSO or a thalidomide analog for 18 hours at 37° C. and 5% CO2. mCherry+GFPlow and NOT(mCherry+GFPlow) cells were sorted by FACS using the FACS Aria Fusion (BD). DMSO treated cells were used to set the mCherry+GFPlow gate and dead cells were excluded from sorting by staining cells with 1 μg/mL DAPI (ThermoFisher). gDNA was isolated using the Maxwell RSC 48 (Promega). gDNA from cells that were unsorted and untreated were also isolated to determine the library representation on the day of compound treatment. Throughout the screen >600× coverage of the library was maintained. 3 biological replicates were carried out with a new transduction taking place each time.
A two-step PCR was used where the first PCR (PCR1) amplified the integrated degron sequence from gDNA and the second PCR (PCR2) added Illumina adaptors and barcodes to permit multiplexing. See Supp F for PCR1 and PCR2 primers. Q5 Hot Start High-Fidelity 2× Master Mix (New England Biolabs) was used for both PCRs. Sufficient gDNA was amplified in PCR1 in order to maintain >600× coverage and amplicons were purified using solid phase reversible immobilization (SPRI) beads (Beckman Coulter). Purified PCR1 products were analysed on the Tapestation 4200 (Agilent) to confirm purity prior to proceeding to PCR2. Sufficient PCR1 product was amplified in PCR2 in order to maintain >600× coverage and amplicons were run on a 2% agarose TAE gel. Target bands were excised and purified using the NucleoSpin Gel and PCR Clean-up Kit (Machery Nagel). Amplicons were analysed on the Tapestation 4200 and quantified using Qubit dsDNA HS kit (ThermoFisher). PCR products were pooled and sequenced as paired-reads on the NovaSeq (Illumina) using a SP2 200 cycles kit (Illumina).
Count distributions, percentage of read mapping, library coverage and replicate correlation per sample were assessed for QC purposes.
To carry out the library screen, we used the same plasmid construct as in our earlier flow cytometry assays, but pooling all 8,380 mutants together into one Jurkat population, ensuring a copy number of one plasmid per cell (FIG. 4B). […] These GFP-negative cells were then separated from the remaining GFP-positive population using fluorescence activated cell sorting (FACS). These two populations were then sequenced and the relative abundance of every mutant in both populations compared to provide a log FC value for each mutant sequence. This value indicated how frequently a sequence is observed in the GFP-negative population relative to the GFP-positive population, and therefore how effective a degron it is for that particular IMID compound.

wild type IKZF3 = wild type IKZF3 (Homo sapiens, UniProt Q96SW2+Q9UKT9); assay: GFP degradation assay (plate reader), WT; format: cell-based; details: background autofluorescence subtracted
Description: (§1) Jurkat cells were added to 96 well U-bottom assay plates (Falcon) at 1×10^5 cells per well and treated with compounds for 18 hours at 37° C. and 5% CO2. Cells were stained with 1 μg/mL DAPI (ThermoFisher) and acquired on a Cytoflex S (Beckman Coulter). Data was analysed using FlowJo 10.8.1 (BD).
(§2) The compounds were assessed in GFP degradation assays as described above. (Data shown in FIG. 19 was obtained using a plate reader leading to a degree of background autofluorescence). The data in FIG. 19 indicates the inflection point—at which range of concentrations the degradation occurs—for each compound. DC50 and selectivity values (following subtraction of background autofluorescence) were acquired. Compound C01 degrades both wild type IKZF3 and WEIS mutant (Q147W N149E Q150I).

[2] = target: WEIS mutant (Q147W N149E Q150I) (Homo sapiens, UniProt Q96SW2+Q9UKT9, N149E/Q147W/Q150I); assay: GFP degradation assay (plate reader), WEIS; format: cell-based; details: background autofluorescence subtracted
Description: as §1, §2

Chain of WEIS mutant (Q147W N149E Q150I) (Q9UKT9 130-189 Q147W/N149E/Q150I): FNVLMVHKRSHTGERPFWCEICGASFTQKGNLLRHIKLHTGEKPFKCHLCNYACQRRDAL
Chain of WEIS mutant (Q147W N149E Q150I) (Q96SW2 whole entry): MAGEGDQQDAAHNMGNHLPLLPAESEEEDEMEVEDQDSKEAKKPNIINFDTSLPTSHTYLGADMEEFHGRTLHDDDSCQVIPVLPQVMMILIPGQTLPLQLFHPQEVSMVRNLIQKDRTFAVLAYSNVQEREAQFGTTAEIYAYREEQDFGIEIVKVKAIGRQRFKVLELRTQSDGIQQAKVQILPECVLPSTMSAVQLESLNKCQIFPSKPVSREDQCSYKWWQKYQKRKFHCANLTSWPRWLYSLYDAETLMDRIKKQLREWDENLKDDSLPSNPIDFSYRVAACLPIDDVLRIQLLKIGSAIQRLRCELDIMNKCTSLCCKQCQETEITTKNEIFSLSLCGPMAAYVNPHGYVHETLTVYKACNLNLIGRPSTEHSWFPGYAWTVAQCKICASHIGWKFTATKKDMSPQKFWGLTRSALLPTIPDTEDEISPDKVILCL
Chain of wild type IKZF3 (Q9UKT9 130-189): as the sequence (Q9UKT9 130-189 Q147W/N149E/Q150I) above, with W18Q, E20N, I21Q counted along it
Chain of wild type IKZF3 (Q96SW2 whole entry): as the sequence (Q96SW2 whole entry) above

| degradation of wild type IKZF3 (wild type IKZF3) | degradation of WEIS mutant [2] | Compound | position of the WT sequence in the volcano plot of the library screen [1] |
| --- | --- | --- | --- |
|  |  | O=C1CCC(N2C(=O)c3ccccc3C2=O)C(=O)N1 (stereo not drawn) [thalidomide, reference compound] | close to the ‘hits’ region |
| degrades | degrades | CN1CCN(c2ccc3c(c2)CN(C2CCC(=O)NC2=O)C3=O)CC1 (stereo not drawn) [C01] |  |
